Experimental findings from PMC6207720, “Identification and antitumor activity of a novel inhibitor of the NIMA-related kinase NEK6” (Scientific Reports, 2018) are described below.

In general, IC50 refers to the point on the concentration scale where inhibition reaches its midpoint. The term inhibition denotes the percentage by which the read-out fell short of the control.

Experiment [1] deals with T1, NEK6 (Homo sapiens, UniProt Q9HC98).
T1 construct: purchased Carna 05-130
The experiment in a line: LANCE-Ultra NEK6 kinase assay. The class given is biochemical. Particulars: 100 µM ATP. The protocol:
The twenty-five compounds resulting from virtual screening were firstly tested for the ability to inhibit the enzymatic activity of NEK6 at a single concentration of 30 µM, using LANCE technology. Quercetin, able to inhibit a broad panel of kinase, was used as positive control of inhibition[12],[30]. This initial screening allowed the identification of two compounds determining >70% NEK6 inhibition at 30 µM, i.e. compound 8 (6-hydroxy-4-methyl-2-oxo-5-[(5-phenyl (2-furyl)) methylene] pyridine-3-carbonitrile), and 21 (6-amino-2-phenyl-5,7,9-triazatetracyclo[8.7.0.0^3,^8 0^11,^16]heptadeca-1(10),3(8),6,11,13,15 hexaene-4,17-dione) (Fig. 4). […] The possible binding mode of compound 8 in the ATP-binding site of NEK6 as well as nonbonded interactions across the complex interface are shown in Fig. 6. Compound 8 may use its phenyl ring and furyl ring to form hydrophobic Pi-alkyl interactions with Ala72 (strand β3), Ala125 (hinge region) and Val59 (strand β2) of the ATP binding site (Fig. 6B). […] This is particulary relevant when considering that C–H···O hydrogen bonds play an important role in the ligand-binding process[33]–[35].
Compounds (i.e. 1 to 25) (Molport, Riga, LV-1011, Latvia) were dissolved in DMSO 100% as 10 mM stock and stored at −20 C. Activity of the compounds as NEK6 inhibitors was tested using LANCE NEK6 Ultra Kinase Assays protocol (U-TRF #25 technical note, PerkinElmer, Monza, MB). Compounds were first tested at 30 µM and incubated with 4 nM NEK6 (Carna, Chuo-ku, Kobe, Japan, # 05-130), 50 nM ULight-p70 S6K Peptide (PerkinElmer # TRF0126) and 100 μM ATP (Sigma-Aldrich, Saint Louis, U.S.A, # A2383) at room temperature. Kinase reactions were terminated after 90 minutes by the addition of EDTA and the signal was read with the Enspire plate reader (PerkinElmer) in TR-FRET mode (excitation at 320 nm and emission at 665 nm) after 60 minutes. Inhibition of NEK6 activity was calculated as percentage with respect to the control sample (100% of activity). Quercetin was used as positive control (Molport). […] For each compound the dose inhibiting 50% of NEK6 activity (IC50) was calculated using the GraphPad Prism 5.0 Software (San Diego, CA, USA).
(In TR-FRET formats the signal depends on donor and acceptor labels being close together.)

Experiment [2] deals with NEK7 (Homo sapiens, UniProt Q8TDX7). The experiment in a line: Off-chip Mobility Shift Assay (MSA) profiling, NEK7. The class given is biochemical. Particulars: ATP approximating Km. The protocol:
Therefore, we decided to evaluate the selectivity of compound 8 against a panel of NEK kinases at 10 µM, using the technique of Off-chip Mobility shift assay. This concentration was chosen according to the guidelines proposed by Knight and Shokat, since the probability of off-target effects increases dramatically above 10 µM[36]. Furthermore, ATP concentration was set to approximate the Km,ATP for each kinase, so that the resulting selectivity profile directly reflects the intrinsic affinities of the inhibitor[37]. […] A major consequence of this substitution may be the redistribution of surface charges at the flexible activation loop resulting in an altered electrostatic potential and ability of NEK6 kinase to interact with other molecules.
The inhibitory activity of compounds 8 and 21 on NEK6 was also verified with MSA technique (Off-chip Mobility shift assay) (CARNA Biosciences Study ID: CBS170097, CARNA Biosciences, Kobe). […] PKR Inhibitor was used as positive control. For profiling study against NEK kinases (i.e. NEK1, NEK2, NEK6, NEK7, NEK9) (CARNA Biosciences Study ID: CBS170098), 8 was tested at 10 μM and ATP concentration approximating Km for each kinase. Assay condition for kinases are available on “Kinase profiling book” downloading by www.carnabio.com (https://www.carnabio.com/output/pdf/ProfilingProfilingBook_en.pdf).

Experiment [3] concerns MDA-MB-231 (breast). The experiment in a line: Cell-based cytotoxicity assay (ATPlite), MDA-MB-231. Particulars: Homo sapiens, MDA-MB-231, 72 h, NA = not active (IC50 greater than 100 µM), read-out: IC50 Values (µM ± SEM). The source says: (§1) The following human carcinoma cell lines were used for the study: MDA-MB-231 and MCF-7 (breast cancer; ATCC, Sesto San Giovanni, MI), PEO1 and COV318 (ovarian cancer; ECACC, Salisbury, UK and ATCC), HCT-15 and SW948 (colon cancer; Public Health England, Salisbury, UK and ATCC), NCI-H1975 and NCI-H1299, (lung cancer; ATCC). Cells were routinely tested free of mycoplasma (MycoAlert mycoplasma detection kit, LONZA, Rockland, ME, USA) and validated by STR (Short Tandem Repeat) DNA profiling (BMR Genomics srl, PD). Cells were grown following supplier indication, in a fully humidified atmosphere of 5% CO2/95% air. All the reagents were purchased from Sigma-Aldrich (St. Louis, MO), if not otherwise specified.
(In general: ATP-based viability assays read luminescence as a measure of living cells.)

In experiment [4] the test system is NCI-H1299 (lung). The experiment in a line: Cell-based cytotoxicity assay (ATPlite), NCI-H1299. Particulars: Homo sapiens, NCI-H1299, 72 h, NA = not active (IC50 greater than 100 µM), read-out: IC50 Values (µM ± SEM).
Excerpt: as §1

Experiment [5] concerns PEO1 cells. The experiment in a line: Cell cycle analysis by flow cytometry. It counts as cell-based, human. Particulars: 48 hours, compound at its IC50 concentration. The protocol:
In order to assess whether the ability of compound 8 to inhibit cell proliferation was accounted for by cell cycle-related changes in cell division, we analysed the progression of PEO1 cells through the cell cycle by flow cytometry at 24, 48 and 72 hours from treatment. PEO1 was selected since, in our experimental conditions, was the cell line showing the highest sensitivity to 8. […] The effect was already measurable at the first experimental time point (24 h) and remained stable over time (Fig. 8).
PEO1 cell cycle perturbations induced by compound 8 (used at its IC50 concentration) were evaluated by standard flow cytometry methods. Briefly, at the end of each incubation period adherent cells were trypsinized, harvested and washed with cold phosphate-buffered saline several times. Cells were then counted, gently fixed in 70% v/v cold ethanol, adding the ethanol dropwise to the cell pellet while vortexing, and incubated at −20 °C for no longer than 7 days. Prior to DNA staining, fixed cells were spun down and treated with RNase (100 µg/ml) for 10 mins to ensure that only DNA was stained. 1 × 10^6/ml cells were then stained with propidium iodide (PI, 0.5 mg/ml) and stored at +4 °C overnight. The day after, stained cells were subjected to flow cytometry. Flow cytometry analysis was performed using the 6-parameter flow cytometer (2 scatter and 4 fluorescence signals) EPICS-XL (Beckman Coulter). A minimum of 30,000 cells of interest were acquired for each sample at a low flow rate (<200 events/sec). Analysis of cell cycle perturbation was performed by the ModFit LT software (Verity software house). Pulse shape processing was used to exclude cell doublets from the analysis.
(In flow cytometry, cells or beads pass a laser one at a time.)

SMILES strings stand for the structures.

T1 sequence (Q9HC98 whole entry): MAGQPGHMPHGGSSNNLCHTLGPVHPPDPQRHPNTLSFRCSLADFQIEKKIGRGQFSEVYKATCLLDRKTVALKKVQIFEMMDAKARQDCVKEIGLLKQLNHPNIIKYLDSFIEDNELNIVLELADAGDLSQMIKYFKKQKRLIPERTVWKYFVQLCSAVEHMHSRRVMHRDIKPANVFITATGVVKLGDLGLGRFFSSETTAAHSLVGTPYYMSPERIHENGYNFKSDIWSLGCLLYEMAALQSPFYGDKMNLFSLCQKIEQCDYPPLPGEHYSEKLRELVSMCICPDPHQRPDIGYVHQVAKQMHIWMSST
Sequence of NEK7 (Q8TDX7 whole entry): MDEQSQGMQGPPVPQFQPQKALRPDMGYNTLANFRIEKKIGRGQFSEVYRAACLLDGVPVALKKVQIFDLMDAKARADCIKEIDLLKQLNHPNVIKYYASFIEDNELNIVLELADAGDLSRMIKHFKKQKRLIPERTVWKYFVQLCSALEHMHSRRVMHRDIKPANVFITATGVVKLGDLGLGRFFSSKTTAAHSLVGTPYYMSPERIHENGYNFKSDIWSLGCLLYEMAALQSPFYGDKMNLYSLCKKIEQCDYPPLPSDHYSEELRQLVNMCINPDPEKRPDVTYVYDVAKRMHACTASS

`CC1=C(C#N)C(O)=NC(=O)/C1=C\c1ccc(-c2ccccc2)o1` [Compound 8, (5Z)-2-hydroxy-4-methyl-6-oxo-5-[(5-phenylfuran-2-yl)methylidene]-5,6-dihydropyridine-3-carbonitrile] showed an IC50 in experiment [1] (LANCE-Ultra, mean ± SEM of 4 independent experiments) of 3.4 ± 1.2 µM. In addition, the inhibition at 30 µM in experiment [1] (single concentration 30 µM, LANCE) was > 70%. Moreover, the inhibition at 10 µM in experiment [2] was ≤ 0%. In experiment [3], the IC50 worked out at 65 ± 15 µM. The IC50 in experiment [4] was 87.8 ± 10 µM. Also, in experiment [5], the “percentage of PEO1 cells in G0/G1” value turned out to be 61%, the “percentage of PEO1 cells in G2/M” value is 16% and the “percentage of PEO1 cells in S” value is reported as 23%.
